Compound `CCCCCCCCCCCCn1nnnc1Cc1ccccc1` has a melting point of 50 to 51 °C. `COCC12CCC(=O)CC1CCC1C3CCC(=O)C3(C)CCC12` (centres undefined) showed a melting point of 94 to 96 °C. Work on `CC(C)(c1ccc([N+](=O)[O-])cc1)c1ccc([N+](=O)[O-])cc1` yielded a melting point of 135 to 137 °C. In the case of `CC(=O)c1ccc(-c2ccc(F)cc2)c(F)c1`, the melting point is reported as 80 to 82.5 °C. Work on `CCn1c(C)c(C)cc(C(=O)O)c1=O` yielded a melting point of 164 to 165 °C. With `COc1cc(C(=O)NC(C)(C)C)ccc1S(=O)(=O)Cl` the melting point was 145 to 149 °C. In the case of `CC(=O)c1c(C)c(NC=O)c(C)c2c1OCC2c1ccc(C(C)C)cc1` (centres undefined), the melting point is reported as 177 to 179 °C. Work on `COCCOc1ccc(C=O)cc1O` yielded a melting point of 74 to 75 °C. With `CCc1c(Cc2[nH]c(Cc3[nH]c(C=O)c(C)c3CC)c(CC)c2CC)[nH]c(C=O)c1C` the melting point was 202 to 203 °C. With `COc1ccc(Br)c(C(=NNS(=O)(=O)c2ccccc2)N2CCN(C)CC2)c1` the melting point was 141 to 145 °C. Compound `COc1ccc(COc2ccc(C(=O)O)cc2OCc2ccc(OC)cc2)cc1` has a melting point of 171 to 172 °C. Compound `CC(C)c1ccc(-c2noc3c2CCC(C(=O)O)CC3)cc1` (centres undefined) has a melting point of 109 to 111 °C. `COC(=O)c1ccc2c(c1)C(=O)c1c-2n(CCCNS(=O)(=O)c2ccccc2)c(=O)c2cc(OC)c(OC)cc12` showed a melting point of 249 to 251 °C. `COC(=O)C(Cc1ccc(OC)c(OC)c1)NNc1ccc(C)c(C)c1` (centres undefined) showed a melting point of 148 to 150 °C. `CC(=O)NCc1cccc(Nc2nccc(-c3sc(-c4ccc(C)nc4)nc3C)n2)c1` showed a melting point of 227 to 229 °C. `c1ccc(OCc2ccc(OCc3ccc4ccccc4n3)cc2)cc1` gave a melting point of 100 to 111 °C. With `O=C(NO)C(CN1C(=O)CNC1=O)CS(=O)(=O)c1ccc(-c2ccc(Cl)cc2)cc1` (centres undefined) the melting point was 150 to 156 °C. `O=C(O)c1cc(=O)c2cccc(COc3ccc(OCc4ccc5ccccc5n4)cc3)c2o1` gave a melting point of 221 to 224 °C. Work on `O=S(=O)(Cc1n[nH]c(-c2ccco2)n1)c1ccccc1` yielded a melting point of 185 to 186 °C. `NS(=O)(=O)c1ccc(-c2c(F)c(F)c(F)c(F)c2-c2ccc(F)cc2)cc1` gave a melting point of 202 to 203 °C. With `CCCCCCCCCCCCCCCCNc1ccc(C(=O)OCCCCO)cc1` the melting point was 61 to 63 °C. With `O=C(O)c1cccc(-n2ncc3c2CCc2ccccc2-3)c1` the melting point was 273 to 275 °C. Work on `COc1ccc(C(=O)Nc2ccc3ccc(Oc4ccccc4C)nc3n2)cc1` yielded a melting point of 153 °C. With `Cc1ccc(-c2c3c(cc4ccc(O)cc24)-c2ccc(O)cc2CO3)cc1C` the melting point was 218 to 221 °C. Work on `Fc1ccc(-c2nnc(Cl)cc2Cl)cc1` yielded a melting point of 124 to 127 °C. `CC(C)[C@H](NC(=O)OCc1csc(N2CCOCC2)n1)C(=O)N[C@@H](Cc1ccccc1)C[C@H](O)[C@H](Cc1ccccc1)NC(=O)OCc1cncs1` showed a melting point of 169 to 170 °C. In the case of `CCNc1nc2ccc(CCc3cn4ccc(C)cc4n3)cc2o1`, the melting point is reported as 156 to 158 °C. Compound `CCC1(CC)OC(=O)Nc2ccc(Br)cc21` has a melting point of 150 to 152 °C. Work on `O=C(Nc1ccc2ccc(Cl)nc2n1)C1=CCC=CC1` yielded a melting point of 210 °C. Compound `CCc1ccccc1NC=C1C(=O)N(c2cccc(-c3nnn[nH]3)c2)N=C1C` has a melting point of 262 °C. In the case of `Nc1ccc2c(c1)Sc1ccc(N)cc1S2`, the melting point is reported as 185 to 186 °C. Work on `Cc1ccc(SC2CC(=O)N2CC(=O)NCCCCCCc2ccc(Cl)cc2)cc1` (centres undefined) yielded a melting point of 63 to 65 °C. In the case of `O=C(O)c1ccc(C(F)(F)F)c(N2CCOCC2)n1`, the melting point is reported as 116 to 117 °C. Work on `CC(=O)NC[C@H]1CN(c2ccc(-n3cnnc3)c(F)c2)C(=O)O1` yielded a melting point of 204 to 206 °C. Compound `Clc1ccc2c(c1)CCC(c1ccccc1)S2` (centres undefined) has a melting point of 91 to 93 °C. For `Nc1ccc([N+](=O)[O-])cc1I`, the melting point was 90 to 95 °C. Compound `COc1ccc(-n2cnc3c(OC)nc4ccccc4c32)cc1` has a melting point of 180 to 182 °C. With `COc1ccnc(CSc2nc3cc4c(cc3[nH]2)C(C)(C)C(=O)C4(C)C)c1C` the melting point was 218 to 220 °C. `COc1cc2c(cc1F)CCN=C2C1(c2ccc(Cl)cc2Cl)CC1` gave a melting point of 151 to 154 °C. Compound `CCOC(=O)[C@H](CCc1ccccc1)N[C@@H](C)C(=O)N1N=C(C(C)(C)C)S[C@H]1C(=O)O` has a melting point of 165 to 168 °C. For `COc1ccccc1N1CCN(CCCNC(=O)c2cccc3c(=O)c(C)c(-c4cccnc4)oc23)CC1`, the melting point was 134 to 137 °C. `CN(C)Cc1cc(-c2ccccc2)c(O)c(-c2ccccc2)c1` showed a melting point of 136 to 137 °C. With `COc1ccc(CN(CCN(C)CCCCCCNC(=S)NCCSCc2csc(NC(=N)N)n2)c2ccccn2)cc1` the melting point was 78 °C. For `Cc1cc(O)cnc1Cl`, the melting point was 126 to 128 °C. With `O=C(Nc1ccc(C(=O)N2Cc3cccn3-c3ccccc32)cc1)c1cccc(Cl)c1Cl` the melting point was 230 to 240 °C. For `Cc1cc(-c2ncc(OC3SCC(O)C(O)C3O)cc2F)ccn1` (centres undefined), the melting point was 143 °C. For `CC1(C)CCC(C)(C)c2cc3c(cc21)CCC=C3Cc1ccc(C(=O)O)cc1`, the melting point was 212 to 214 °C. `CC(OS(C)(=O)=O)C(C)n1ncn(-c2ccc(N3CCN(c4ccc(OCC5COC(Cn6cncn6)(c6ccc(F)cc6F)O5)cc4)CC3)cc2)c1=O` (centres undefined) showed a melting point of 172 °C. Compound `O=c1cc2c(nn1Cc1ccc(Cl)cc1)-c1cc(Br)sc1SCC2` has a melting point of 152 to 154 °C. With `O=C1c2ccccc2C(=O)N1Cc1noc(-c2ncn3c2[C@@H]2CCN2C(=O)c2sccc2-3)n1` the melting point was 155 to 157 °C. For `CCCC1=C(C(=O)OCC)C(c2ccccc2Cl)c2cn(C(=O)c3ccccc3)nc2N1` (centres undefined), the melting point was 119 to 121 °C. Compound `CCOC(=O)Nc1ccc(-c2c[nH]c(=O)cn2)cc1` has a melting point of 260 to 262 °C. With `CCCCCCCCCCCC1=NCCN1CCCCO` the melting point was 58 to 60 °C. Compound `C=Cc1ccc(NC(=O)N2CCN(c3ncnc4cc(OC)c(OC)cc34)CC2)cc1` has a melting point of 214 to 216 °C. With `O=CN1CC2CC2(c2ccc(O)cc2)C1` (centres undefined) the melting point was 166 to 167 °C. In the case of `CCCCC(=O)OC1(C(=O)CO)CCC2C3CC(C)C4=CC(=O)CCC4(C)C3C(O)CC21C` (centres undefined), the melting point is reported as 160 °C. For `CCOC(=O)c1c(C)cc(O)c(C(=O)OCC)c1O`, the melting point was 61 to 62 °C. For `CC(C)(C)OC(=O)NC1CCCCCC=CC2CC2(C(=O)NS(=O)(=O)C2CC2)NC(=O)C2CC(OC(=O)c3ccc(Cl)c(F)c3)CN2C1=O` (centres undefined), the melting point was 147 to 149 °C. In the case of `CCCCC1(O)C(C)=CC(=O)CC1(C)C` (centres undefined), the melting point is reported as 90 to 93 °C. Compound `CC1=NN=C(c2ccc([N+](=O)[O-])cc2)c2cc(Cl)ccc2C1` has a melting point of 199 to 203 °C. `COc1cc(-c2ncc(S(C)=O)cc2Cl)c(F)cc1Cl` (centres undefined) showed a melting point of 117 to 118 °C. With `CC(=O)N1CC(C)(C)c2cc3nc(-c4ccnnc4)[nH]c3cc21` the melting point was 225 to 260 °C. `COCC#CC1=CC(C)(C)Oc2c(OC)cc(Cc3cnc(N)nc3N)cc21` gave a melting point of 236 to 237 °C. Work on `CCc1ccc2c(c1NC(=O)CC1c3ccccc3Oc3ccccc31)OC(C)C2` (centres undefined) yielded a melting point of 278 to 279 °C. `CC(C)OC(=O)Nc1cccc(-c2ccnc3c(C(=O)c4ccccc4)cnn23)c1` gave a melting point of 116 to 118 °C. In the case of `CC(=O)OC1=CC2=CCC3C4CC(C)C(O)(CC(=O)OC(=O)C(C)(C)C)C4(C)CC4OC43C2(C)C=C1` (centres undefined), the melting point is reported as 108 to 120 °C. With `CNc1cc2cnnn2c(C)n1` the melting point was 162 to 164 °C. `Cn1nc2c(N)nc3ccccc3c2c1CC(C)(C)O` showed a melting point of 256 to 257 °C. In the case of `COc1nnc(SCC2=C(C(=O)O)N3C(=O)C(NC(=O)Cc4csc(=O)s4)C3SC2)s1` (centres undefined), the melting point is reported as 208 °C. Work on `COc1ccc(Cc2cnc(N)nc2N)cc1` yielded a melting point of 206 to 209 °C. With `CC(C)c1cccc(C(C)C)c1NC(=O)CN1C(=O)N(c2ccc(C#N)cc2)C2(CCCCC2)C1=O` the melting point was 280 to 282 °C. `CC(C)(C)Nc1c(NCc2ccc(Cl)c(Cl)c2)c(=O)c1=O` gave a melting point of 302 to 303 °C. For `O=C1c2ccc(O)cc2C(=O)N1c1cccc(O)c1`, the melting point was 270 °C. For `CC(C)C[C@H](NC(=O)CCCc1ccccc1)C(=O)N[C@@H](Cc1ccccc1)C(=O)CSCc1ccco1`, the melting point was 106 to 108 °C. Compound `CCCC#CCn1ncc(-c2ccc(S(C)(=O)=O)cc2)c(-c2ccc(F)cc2)c1=O` has a melting point of 79 to 80 °C. Compound `Cc1cc(=O)[nH]c2ccc(OCCCN3CCN(Cc4ccc(F)cc4)CC3)cc12` has a melting point of 178 to 180 °C. For `CCN(CC)c1ccc(C=C2CC(C)CC(=Cc3ccc(N(CC)CC)cc3)C2=O)cc1` (centres undefined), the melting point was 169 °C. In the case of `O=c1[nH]c(=O)n(CCCCBr)c2ccccc12`, the melting point is reported as 152 to 153 °C. Compound `CCC(C)(C)c1cc(-c2ccc(C=C3SC(N4CCOCC4)=NC3=O)s2)ccc1O` has a melting point of 322 to 323 °C. Work on `CS(=O)(=O)NCCCCn1c(CO)nc2c(N)nc3ccccc3c21` yielded a melting point of 216 to 219 °C. `CCOC(=O)c1conc1-c1ccc(F)c(Br)c1` showed a melting point of 96 to 97 °C. With `COC(=O)C=C1CCC(c2ccc(O)cc2)CC1` (centres undefined) the melting point was 151 to 152 °C. `CCCc1nn(C)c2c(=O)n(CCNc3ccc(OC(C)(C)C(=O)O)cc3)c(C)nc12` gave a melting point of 88 to 90 °C. `CC(=O)Nc1cc(CN2CCCCC2)c(O)c2c1CCCC2` gave a melting point of 166 to 167 °C. `N=C(N)NC(=O)c1cn([C@H](CO)CCc2ccccc2)cn1` showed a melting point of 111 to 113 °C. With `CCOC(=O)C1=C(C)NC(C)=C(C(=O)OC)C1c1cccc(NC(C)=O)c1` (centres undefined) the melting point was 197 to 199 °C. For `C[C@]1(COC(=O)N2CCc3cc(Cl)ccc32)Cn2cc([N+](=O)[O-])nc2O1`, the melting point was 189 to 191 °C. For `CCNC(=O)n1nc(Oc2c(Cl)cc(C(F)(F)F)cc2Cl)cc1C(C)C`, the melting point was 74 to 76 °C. `CCOC(=O)c1cc([N+](=O)[O-])c2ccccn2c1=O` showed a melting point of 169 to 170 °C. Compound `O=C(c1ccc2c(=O)n(CCCCN3CC=C(c4ccccc4)CC3)c(=O)[nH]c2c1)N1CCOCC1` has a melting point of 206 to 210 °C. For `O=C(O)C1CC=C(c2c(-c3ccccc3)[nH]c3ccccc23)CC1` (centres undefined), the melting point was 178 to 179 °C. `CC(=O)Nc1ccc(C(=O)O)c([N+](=O)[O-])c1` gave a melting point of 217 to 220 °C. With `CC(C)c1ccc(-n2ccn(-c3cccc(C(=O)O)c3)c2=O)cc1` the melting point was 283 to 285 °C. In the case of `CCC(C(=O)N(C)C)n1cc(C)c(-c2ccccc2OC)n1` (centres undefined), the melting point is reported as 79 to 81 °C. Compound `COCC(=O)OC1(C(=O)COC(=O)C(C)C)CCC2C3CC(C)C4=CC(=O)C=CC4(C)C3C(O)CC21C` (centres undefined) has a melting point of 148 to 150 °C. Work on `CN(Cc1ccc(C2=NCCN2C(=O)OC(C)(C)C)cc1)C(=O)OCc1ccccc1` yielded a melting point of 124 °C. With `O=C(c1ccc(C2CCCCC2)cc1)c1ccccn1` the melting point was 44 to 45 °C. `Fc1nc(NCc2ccccn2)c2nc[nH]c2n1` showed a melting point of 217 to 220 °C. In the case of `N#Cc1c(N2CCc3ccccc3CC2)nc(NCC(F)(F)F)n(CC(F)(F)F)c1=O`, the melting point is reported as > 200 °C.
